# According to PubChem BioAssay AID1845228:
# Settings: pampa; 60.0 min; 50.0 µM
row,SMILES,Papp [×10⁻⁶ cm/s]
1,COCCN(C)Cc1ccc2nc3sc(C(=O)N(C)C4CCCCC4)cn3c2c1,79
2,CCN1CCN(C(=O)c2ccc3c(c2)N(Cc2cc(C)ccc2C)C(=O)c2ccccc2S3(=O)=O)CC1,63
3,CNCCC=C1c2ccccc2CCc2ccccc21,253
4,COc1ccc(C)cc1Nc1c2c(nc3ccccc13)CCC2,215
5,CO[C@@]1(NC(=O)C2SC(=C(C(N)=O)C(=O)O)S2)C(=O)N2C(C(=O)O)=C(CSc3nnnn3C)CS[C@@H]21 (stereo not given in full),< 1
6,CC1(C#N)CCN(c2c(C(=O)N3CCN(S(C)(=O)=O)CC3)cnc3ccc(F)cc23)CC1,19
7,Cn1nnnc1Sc1ncnc2scc(-c3ccsc3)c12,173
8,COc1ccc2c(c1)C(c1ccc(F)cc1)=C(CN1CCCC1)CO2,100
9,COc1cc(C(C)C)c(Oc2cnc(NC(CO)CO)nc2N)cc1I,103
10,N=c1c2c(-c3ccccc3)c(-c3ccccc3)n(Cc3ccccc3)c2ncn1C1CCN(Cc2ccccc2)CC1,233
11,Nc1nc2c(c(N3CCNCC3)n1)CCC1=C2[C@@H]2CCCC[C@@H]2O1,30
12,Cc1onc(-c2c(Cl)cccc2Cl)c1CC(=O)NCc1ccc(OCC(F)(F)F)nc1,204
13,CO/N=C(\C(=O)N[C@@H]1C(=O)N2C(C(=O)O)=C(C[N+]3(C)CCCC3)CS[C@H]12)c1csc(N)n1,< 1
14,N#Cc1ccnc(Nc2cc(C3CCN(C4COC4)CC3)cc(N3CCC(F)(F)C3)n2)c1,133
15,CCC1C(C)=NN=C(c2ccc(OC)c(OC)c2)c2cc(OC)c(OC)cc21 (stereo not given),91
16,CCC1=C[C@@H]2CN(C1)Cc1c([nH]c3ccccc13)[C@@](C(=O)OC)(c1cc3c(cc1OC)N(C)[C@H]1[C@@](O)(C(=O)OC)[C@H](OC(C)=O)[C@]4(CC)C=CCN5CC[C@]31[C@@H]54)C2,30
17,COc1ccc(S(=O)(=O)Nc2cccnc2Nc2ccc(O)cc2)cc1,13
18,N#Cc1c[nH]c2c(C(=O)N3CCN(CCc4ccc(F)cc4)CC3)cccc12,121
19,O=C(CCl)Nc1cccc(NC2=NS(=O)(=O)c3ccccc32)c1,5.9
20,NCC1(CC(=O)O)CCCCC1,< 1
21,Nc1nc(/C(=C/CC(=O)O)C(=O)N[C@@H]2C(=O)N3C(C(=O)O)=CCS[C@H]23)cs1,18
22,N=c1c2c(-c3ccccc3)c(-c3ccccc3)n(CCc3ccccc3)c2ncn1CCCO,66
23,NC(=O)OC[C@@H]1[C@H](NC(=O)/C(=N\OCC(=O)O)c2csc(N)n2)C(=O)N1S(=O)(=O)O,< 1
24,CC(C)NC(=O)COc1cccc(-c2nc(Nc3ccc4[nH]ncc4c3)c3ccccc3n2)c1,226

row,SMILES,Papp [×10⁻⁶ cm/s]
1,Cc1nn(C)c(C)c1-c1cccc2c1CCC(N(C)C)C2 (stereo not given),13.4
2,COC(=O)N[C@H](C(=O)N1CCC[C@H]1C(=O)Nc1ccc([C@@H]2CC[C@@H](c3ccc(NC(=O)[C@@H]4CCCN4C(=O)[C@@H](NC(=O)OC)C(C)C)cc3)N2c2ccc(C(C)(C)C)cc2)cc1)C(C)C,< 1
3,CC(C)N(CCCCOCC(=O)NS(C)(=O)=O)c1cnc(-c2ccccc2)c(-c2ccccc2)n1,9
4,CCOC(=N)c1nc2ccc3ncnc(Nc4cc(F)c(F)cc4Cl)c3c2s1,1.2
5,CC(=CCCC1=CCC(C2=CC(=O)OC2O)OC1O)CCC1=C(C)CCCC1(C)C (stereo not given),9.8
6,Cc1onc(-c2c(F)cccc2Cl)c1C(=O)N[C@@H]1C(=O)N2[C@@H]1SC(C)(C)[C@@H]2C(=O)O,28
7,Cc1ccc(NC(=O)c2ccc(CN3CCNCC3)cc2)cc1Nc1nccc(-c2cccnc2)n1,19
8,CC1=C(/C=C/C(C)=C/C=C/C(C)=C/C(=O)O)C(C)(C)CCC1,< 1
9,COc1ccc(CCn2cnc3c(c(-c4ccccc4)cn3Cc3ccccc3)c2=N)cc1OC,284
10,CN(C)C(=O)NC1CCC(CCN2CCN(c3cccc(Cl)c3Cl)CC2)CC1 (stereo not given),100
11,c1nc(NC2CCCCCC2)c2cc(CNC[C@H]3CCCO3)sc2n1,105
12,COc1cc2nc(N3CCC(N4CCCCC4)CC3)nc(NC3CCCCCC3)c2cc1OC,116
13,Cc1ccc(=O)n(-c2ccccc2)c1,14
14,Cc1ncc(COP(=O)(O)O)c(C=O)c1O,< 1
15,CC(C)C[C@H]1C(=O)O[C@H](Cc2ccc(N3CCOCC3)cc2)C(=O)N(C)[C@@H](CC(C)C)C(=O)O[C@H](C)C(=O)N(C)[C@@H](CC(C)C)C(=O)O[C@H](Cc2ccc(N3CCOCC3)cc2)C(=O)N(C)[C@@H](CC(C)C)C(=O)O[C@H](C)C(=O)N1C,< 1
16,CC(=O)OCC1=C(C(=O)O)N2C(=O)C(NC(=O)Cc3cccs3)C2SC1 (stereo not given),2
17,Oc1ccc(/C=C/c2cc(O)cc(O)c2)cc1,5
18,COc1ccc(Cn2c(-c3ccccc3)c(-c3ccccc3)c3c(=N)n(CC(OC)OC)cnc32)cc1,272
19,COc1ccc2c(c[n+](C)c3c4cc5c(cc4ccc23)OCO5)c1OC,121
20,Cc1c2ccncc2c(C)c2c1[nH]c1ccccc12,> 300
21,CC(=O)OCC1=C(C(=O)O)N2C(=O)[C@@H](N)[C@H]2SC1,< 1
22,CC(/C=C/[C@@H]1C[C@]1(C)c1ccc2c(c1)C(C)(C)CCC2(C)C)=C\C(=O)O,63
23,Cn1nnnc1Sc1ncnc2scc(-c3cccc(C(F)(F)F)c3)c12,296
24,O=[N+]([O-])c1nccn1CO[C@@H](CO)[C@H](O)CO,< 1

row,SMILES,Papp [×10⁻⁶ cm/s]
1,CCN(CC)CC(=O)Oc1ccc(NC(C)=O)cc1,7
2,O=C1NC(Nc2ccccc2)=N/C1=C\c1ccc2c(c1)OCO2,< 1
3,CC(C)N(CCCNC(=O)Nc1ccc(C(C)(C)C)cc1)C[C@H]1O[C@@H](n2ccc3c(N)ncnc32)[C@H](O)[C@@H]1O,< 1
4,Cc1ccnc(NC(c2cccc(O)c2)c2ccc3ccc(C)nc3c2O)c1 (stereo not given),115
5,CCOC(=O)c1ccc(NC(=O)c2sc3nc4c(cc3c2N)N2CCC4CC2)cc1,255
6,Cn1nnnc1SCC1=C(C(=O)O)N2C(=O)[C@@H](NC(=O)[C@H](OC=O)c3ccccc3)[C@H]2SC1,< 1
7,Cn1nnnc1Sc1ncnc2scc(-c3ccc([N+](=O)[O-])cc3)c12,93
8,C=Cc1c(C)c2cc3nc(c(CC(=O)N[C@@H](CC(=O)O)C(=O)O)c4nc(cc5[nH]c(cc1[nH]2)c(C)c5CC)C(C)=C4C(=O)O)[C@@H](CCC(=O)O)[C@@H]3C,< 1
9,NNC(=O)c1ccncc1,3
10,Oc1c(Cl)cc(Cl)cc1Sc1cc(Cl)cc(Cl)c1O,288
11,COc1ccccc1NC(=O)C1=C(C)Nc2c(C(=O)Nc3ccc(F)cc3)cnn2C1c1ccc(Cl)cc1 (stereo not given),< 1
12,COCCn1cnc2c(c(-c3ccccc3)cn2Cc2ccccc2)c1=N,139
13,N=c1c2c(-c3ccccc3)cn(Cc3ccccc3)c2ncn1CCCCO,110
14,Clc1ccc(CN[C@H]2CCN(c3ncc(Br)cn3)C2)c(Cl)c1,> 300
15,Cc1ccccc1N(C)C1CN([S+](=O)([O-])c2cccc(C(F)(F)F)c2)C1,> 300
16,COc1ccc(Cn2c(-c3ccccc3)c(-c3ccccc3)c3c(=N)n(CCO)cnc32)cc1,279
17,COc1ccc(Cn2c(-c3ccccc3)c(-c3ccccc3)c3c(=N)n(N4CCOCC4)cnc32)cc1,160
18,NC(=O)c1ccc(-c2ncc3cnc(-c4cccc(F)c4)cn23)cc1,242
19,N=c1c2c(-c3ccccc3)c(-c3ccccc3)n(CCc3ccccc3)c2ncn1C1CCN(Cc2ccccc2)CC1,14
20,O=C(NCc1cnccn1)c1ccc(-c2ncc3cnc(-c4cccc(F)c4)cn23)cc1,94
21,CNc1oc(-c2cccc(Cl)c2Cl)nc1C#N,124
22,Cn1nnnc1Sc1ncnc2scc(-c3ccc[nH]3)c12,126
